Experimental data: paper PMC7204527, “In Vitro Assessment of the Interaction Potential of Ocimum basilicum (L.) Extracts on CYP2B6, 3A4, and Rifampicin Metabolism” (Frontiers in Pharmacology, 2020)
Values joined by “and” are separate entries in the source; they are usually repeats but may differ in a detail not shown here. Equal entries are not always repeated. Structures can show the parent of a compound that is named as a salt. Each block holds one compound with its values, some of them ahead of it.

Assays:
CYP2B6 mRNA = CYP2B6 mRNA expression in HepG2 cells (RT-PCR, agarose gel); type: cell-based, human; conditions: HepG2, 10 μM, positive control, p < 0.001 vs cell control
CYP2B6 = target: T1, CYP2B6 (Homo sapiens, UniProt P20813); assay: Michaelis-Menten kinetics of efavirenz metabolism in HLM
T1 sequence (P20813 1-491): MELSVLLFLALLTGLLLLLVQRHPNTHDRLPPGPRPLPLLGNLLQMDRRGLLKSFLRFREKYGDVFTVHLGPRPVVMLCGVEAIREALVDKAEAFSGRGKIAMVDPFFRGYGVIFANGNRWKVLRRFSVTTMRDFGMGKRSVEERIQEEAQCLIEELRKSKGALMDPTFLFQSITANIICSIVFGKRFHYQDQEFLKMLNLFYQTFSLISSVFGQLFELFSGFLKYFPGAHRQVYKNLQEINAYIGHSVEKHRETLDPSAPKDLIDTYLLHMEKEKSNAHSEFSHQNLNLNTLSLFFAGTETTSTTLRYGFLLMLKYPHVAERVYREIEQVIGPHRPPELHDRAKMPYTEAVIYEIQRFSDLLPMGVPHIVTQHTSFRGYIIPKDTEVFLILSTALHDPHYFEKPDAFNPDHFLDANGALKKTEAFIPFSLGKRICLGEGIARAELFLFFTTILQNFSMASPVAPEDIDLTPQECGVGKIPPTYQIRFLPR

CYP1A2 = tested on: CYP1A2; parameters: method as in Pan et al., 2014; conditions: ref Pan et al., 2014; cited from earlier work
[1] = tested on: HIV-1 Reverse Transcriptase (RT)-associated RNase H; parameters: method as in Sonar et al., 2017; conditions: in vitro, ref Sonar et al., 2017, cited from earlier work
β-esterases = assay: Michaelis-Menten kinetics of rifampicin metabolism in HLM; type: in vitro ADME, human; conditions: pooled HLM
CYP3A enzymes = tested on: CYP3A enzymes; parameters: method as in Quintieri et al., 2008; conditions: ref Quintieri et al., 2008; cited from earlier work
[2] = target: T2, rifampicin metabolism (β-esterases) (Homo sapiens, UniProt P22760); assay: HLM inhibition assay, rifampicin metabolism to 25-O-desacetyl rifampicin, two-point screening and IC50; type: in vitro ADME; conditions: liver microsomes, pH 7.4, two-point screening, 49.79 μg/ml, read-out: rifampicin metabolism activity reduced by
T2 sequence (P22760 1-399): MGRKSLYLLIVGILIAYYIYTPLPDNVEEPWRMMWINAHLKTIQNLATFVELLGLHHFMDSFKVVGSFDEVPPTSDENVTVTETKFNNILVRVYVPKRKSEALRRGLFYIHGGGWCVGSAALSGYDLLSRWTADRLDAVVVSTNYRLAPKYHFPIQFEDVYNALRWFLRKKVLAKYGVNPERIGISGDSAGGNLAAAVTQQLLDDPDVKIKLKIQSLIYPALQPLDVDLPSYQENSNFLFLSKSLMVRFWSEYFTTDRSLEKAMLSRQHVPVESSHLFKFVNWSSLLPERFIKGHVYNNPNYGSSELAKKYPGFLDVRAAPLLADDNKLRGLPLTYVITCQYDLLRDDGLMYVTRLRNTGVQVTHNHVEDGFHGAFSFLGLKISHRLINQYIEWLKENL
Description: The inhibitory potential of each extract was assessed using two-point screening (20 and 200 μg/ml) and the activity potential was compared with the control incubates (without inhibitor). Neostigmine was used as the internal standard.
Briefly, a standard 200 μl incubation mixture containing the liver microsomes (0.5 mg/ml protein concentration for efavirenz, 0.25 mg/ml protein concentration rifampicin), efavirenz (15 μM)/rifampicin (48 μM) in 0.2M phosphate buffer (pH 7.4) and the basil herb extract (final concentration […] or 200 μg/ml, dissolved in <1% solvent) was incubated at 37°C for 30 min, in triplicates, with master reaction mix comprising of NADPH (final concentration 1.3 mM) and other reaction co-factors such as glucose-6-phosphate (final concentration 1.3 mM), glucose-6-phosphate dehydrogenase (1 U/ml) and magnesium chloride (final concentration 3.3 mM). About 200 μl of chilled ice-cold acetonitrile spiked with neostigmine (20 μM) was used to terminate each reaction. These samples were then centrifuged at 13,000 rpm for 10 min and the supernatants were subjected to HPLC analysis. The mobile phase comprised of water (A): acetonitrile (B) at a flow rate of 0.7 ml min^-1 for efavirenz samples and water (A): methanol (B) at a flow rate of 0.8 ml min^-1 for rifampicin samples. […] The percentage of remaining activity was expressed as in the equation below (equation 2.8.3.1): […]

[3] = target: T2, rifampicin metabolism (β-esterases); assay: Time-dependent inhibition (TDI) IC50 shift assay in HLM, rifampicin metabolism; type: in vitro ADME; conditions: human liver microsomes, probe rifampicin
Description: The TDI fold-shift was calculated using the ratio of the IC50s of the normal assay IC50(-) to that of the pre-incubation assay IC50(+), with NADPH (equation 2.8.3.2).
Eq. (2.8.3.2) TDIfold-shift=normal assayIC50(−)/pre-incubation assayIC50(+)
Extracts with fold shifts ≥1.5 were classified positive for TDI ([Nomeir et al., 2004]).

[4] = tested on: UDP glucuronosyltransferases; parameters: method as in Zhang et al., 2005; conditions: different assay conditions, bilirubin as the substrate; ref Zhang et al., 2005; read-out: IC50 reported in a previous HLM study; cited from earlier work

- fold induction of CYP2B6 mRNA expression (CYP2B6 mRNA): significant fold induction
SMILES: C[C@@H]1C[C@H]2[C@@H]3CCC4=CC(=O)C=C[C@]4(C)[C@@]3(F)[C@@H](O)C[C@]2(C)[C@@]1(O)C(=O)CO [Dexamethasone, dexamethasone]

- Km (CYP2B6; human, pooled human liver microsomes): 15.1 µM
- CLint (Vmax/Km) (CYP2B6; pooled HLM): 0.0240 μl/min/mg protein
- Vmax (CYP2B6; pooled HLM, formation of 8-hydroxy efavirenz): 0.3576 pmol/min/mg protein
SMILES: O=C1Nc2ccc(Cl)cc2[C@@](C#CC2CC2)(C(F)(F)F)O1 [EFV, efavirenz]

SMILES: COc1ccc(-c2cc(=O)c3c(O)c(OC)c(OC)cc3o2)cc1O [Eupatorin, Eupatorin (3′,5-Dihydroxy-4′,6,7-trimethoxyflavone)]
- inhibition of CYP1A2 (CYP1A2): inhibits

SMILES: CCCCCCCC/C=C\CCCCCCCCNC(=O)/C=C/c1ccc(O)c(O)c1 [N-oleylcaffeamide]
- inhibition of RT-associated activity of ribonuclease H and DNA polymerase [1]: strongly inhibited

SMILES: CO[C@H]1/C=C/O[C@@]2(C)Oc3c(C)c(O)c4c(O)c(c(/C=N/N5CCN(C)CC5)c(O)c4c3C2=O)NC(=O)/C(C)=C\C=C\[C@H](C)[C@H](O)[C@@H](C)[C@@H](O)[C@@H](C)[C@H](OC(C)=O)[C@@H]1C [RIF, rifampicin]
- CLint (Vmax/Km) (β-esterases): 0.0260 μl/min/mg protein
- Vmax (β-esterases; formation of 25-O-desacetyl rifampicin): 1.2330 pmol/min/mg protein
- Km (β-esterases; formation of 25-O-desacetyl rifampicin, 0–150 μM): 48.2 µM
- Vmax (β-esterases; formation of 25-O-desacetyl rifampicin, listed as RIFAMPICIN): 1.233 pmol/min/mg protein

SMILES: COc1ccc(-c2cc(=O)c3c(O)c(OC)c(OC)cc3o2)cc1 [Salvigenin, Salvigenin (5-Hydroxy-6,7,4′-trimethoxyflavone)]
- inhibition of CYP3A enzymes (CYP3A enzymes): moderate inhibitor

SMILES: Cc1c(O)cccc1C(=O)N[C@@H](CSc1ccccc1)[C@H](O)CN1C[C@H]2CCCC[C@H]2C[C@H]1C(=O)NC(C)(C)C [nelfinavir, nelfinavir mesylate hydrate]
- inhibition at 0.5 h [2]: 30%
- IC50 ([3]; HLM, 30 min pre-incubation with NADPH, rifampicin as substrate, read-out: TDI IC50 against rifampicin metabolism): 6.39 µM and 3.63 µg/mL
- IC50 shift ([3]; rifampicin pathway, fold shift ≥1.5 classified positive for TDI, read-out: IC50 shift-fold, co-incubation IC50(-) / pre-incubation IC50(+)): > 1.5
- IC50 [4]: 2.7 µM

SMILES: CCCCCCCCCCCCCCOC(=O)/C=C/c1ccc(O)c(OC)c1 [tetradecyl ferulate]
- IC50 ([1]; read-out: IC50, RNase H inhibition): 12.4 µM
